Data reported in patent US10242153B2, “Method for determining the risk profile of neoplastic tissue” (NOVAZOI THERANOSTICS, priority 2014, dated 2019).

Experiments:
[1] = system: mammary fibrocystic (MCF10A) cells; experiment: Peak subG1 fraction after declustering drugs, non-malignant MCF10A cells; assay type: cell-based; conditions: for peak subG1 percent compared to controls: MCF10A cells; for Peak subG1 percents over 48 h: MCF10A
Method: To evaluate the impact of putative declustering drugs on cell cycle progression and hypodiploidy (<2N DNA content, which may indicate apoptotic cells), MDA-MB-231 (231), PC3, and HeLa cells were treated with different concentrations of declustering drugs, stained with propidium iodide, labeled with anti-MPM2 antibody, and then assessed by flow cytometry at multiple time points over 48 hr. […] The duration, highest degree, and rapidity of onset of MA varied between drugs, drug concentrations, and cell lines (data not shown). In general, the maximum MA achieved was less pronounced in Nos- and PJ-treated cells. Drug-induced onset of MA was corroborated by substantial increases in cyclin B1 levels in all cell lines. For most cases, prolonged MA (˜24 hr in duration) was followed by a substantial increase in the subG1 population fraction. […] Instances where the subGl fraction was elevated without cleaved caspase-3 may either represent caspase-independent cell death or the presence of hypodiploid cells whose fate is unclear. In general, no consistent associations between the extent, duration, or timing of MA within drugs or across cell lines was found.
(§1) To determine whether the CA-inducing activity of declustering drugs is restricted to cancer cells, two non-malignant cell lines, mammary fibrocystic (MCF10A) cells and adult human dermal fibroblasts (HDFs) were treated with these drugs. […] In comparison, 10 and 25 µM RBN increased peak CA over controls in interphase cells (p<0.001 and p=0.001, respectively), with the lower concentration dramatically augmenting peak CA to 56% of cells versus 15% for the higher dose (FIG. 13, panel B).
Importantly, a therapeutic window exists for several of these agents at the concentrations and in the cell lines tested compared to cancer cells.

MCF10A cells = experiment: Centrosome amplification (CA) by microscopy, MCF10A cells; assay type: cell-based
Method: (§2) Consequently, CA was assessed in cultures treated with different concentrations of declustering drugs for 6, 12, 18, or 24 h and untreated controls via microscopy. Centrosomes were identified by γ-tubulin and centrin-2 colocalization at discrete foci.
as §1

231, HeLa and PC3 cells = experiment: Centrosome amplification (CA) by microscopy across cancer cell lines; assay type: cell-based; conditions: 25 μM
Method: as §2
The peak percent CA detected over 24 h is shown in FIG. 13 (only statistically significant (P<0.05) increases over control values are represented in the Figures).
To better understand the “potency” of drug-induced CA with time, the average fold change in CA over controls over 24 h was assessed (FIG. 12, panel A), whereby the extent of CA across time points (i.e., 6, 12, 18, and 24 hr) was averaged and then divided by the extent of CA in control (i.e., 0 hr). All of the drugs at least doubled the peak extent of CA in all cell lines tested (FIG. 12, panel A), although the final extent of CA could be small or large in magnitude depending on the initial centrosomal burden as shown in FIG. 11. […] The extent of CA was less in interphase cells, with maximum values of 31% and 87% for 10 and 25 μM RBN (FIG. 13, panel A). […] The peak extent in interphase HeLa cells was somewhat less at 30.7% and 48.1% for 10 and 25 μM RBN, respectively (FIG. 13, panel A). For Nos and BN, there was no major difference in CA levels in interphase versus mitotic cells.

[2] = system: PLK4, Cyclin E, and Aurora A; experiment: Western blotting of markers of centrosome amplification; assay type: cell-based; conditions: PC3 cells, 25 μM
N1E-115 cells [3] = experiment: Golgi (GM130) and γ-tubulin co-immunostaining of drug-treated N1E-115 cells; assay type: cell-based, murine; conditions: data not shown
Excerpt: The Golgi, which is primarily responsible for posttranslational modification and protein sorting, also functions as a microtubule-organizing center (MTOC). It has been hypothesized that supernumerary centrosomes may better organize the Golgi to enhance directional cell migration. To investigate what happens to the Golgi upon declustering drug-induced dispersal of the interphase centrosomal cluster, drug-treated N1E-115 cells were co-immunostained with GM130 (a cis-Golgi matrix protein crucial for maintaining its structure) and γ-tubulin.

N1E-115 cells [4] = experiment: Vinculin localization in serum-starved N1E-115 cells; assay type: cell-based, murine; conditions: serum-starved (SS) cells
Excerpt: Vinculin stabilizes cell-substrate contacts in neuronal cells undergoing neuritogenesis, while activation by actin-binding proteins mobilizes vinculin to focal adhesions. To determine the localization of vinculin in the neurite extensions and the effect of declustering agents on its localization, N1E-115 cells were immunostained cells for vinculin and stained F-actin using rhodamine-phalloidin.

N1E-115 cells [5] = experiment: Ki67 and cleaved caspase-3 immunostaining of serum-starved N1E-115 cells; assay type: cell-based, murine; conditions: RedBr-Nos 5 μM, Griseofulvin 10 μM, PJ-34 10 μM
N1E-115 cells [6] = experiment: Neuritogenesis (neurite extension) in serum-starved N1E-115 cells; assay type: cell-based, murine; conditions: 48 h, PJ-34 10 μM, Paclitaxel 0.05 μM
Method: N1E-115 cells grown in serum-starved (SS) medium were evaluated to determine the extent of neurite formation after 48 h of treatment with RedBr-Nos (5 μM), Griseofulvin (10 μM), PJ-34 (10 μM), Paclitaxel (0.05 μM) treatment or untreated control cells (i.e., serum-starved medium (SS) alone). Panels Ai and Aii depict quantitative bar graphs representing the average length of neurites and percentage of population of cells showing neurite length >10 μm, respectively. A hundred cells were counted in each case. […] Panel B depicts an immunoblot showing CLASP1 expression levels in control (C) and CLASP1 siRNA-transfected N1E-115 cells.
Neuritogenesis is a process in nerve cells involving the extension of polarized, elongated neurites. N1E-115 cells usually extend only one major neurite per cell, which can vary in length from 5 to 500 μm. The growth cones of the neurites serve as primary focal points of motility. The effect of declustering agents on cell motility was evaluated by assessing the length and frequency of neurites formed in a serum-free medium on a laminin-coated surface.

Row | Compound | peak subG1 / toxicity in MCF10A cells versus cancer cell lines ([1]; 10 μM) | susceptibility / toxicity in MCF10A cells versus cancer cell lines ([1]; 25 μM) | peak subG1 percent compared to controls [1] | Peak subG1 percents over 48 h ([1]; 10 μM) [%] | Peak subG1 percents over 48 h ([1]; 25 μM) [%] | CA / peak extent of CA versus control levels (MCF10A cells; interphase and mitotic MCF10A cells, both concentrations (10 and 25 μM), over 24 h) | induction of CA (231, HeLa and PC3 cells) | expression of Cyclin E and PLK4 [2] | fragmentation of the interphase Golgi complex (N1E-115 cells [3]) | vinculin localization and focal adhesion points (N1E-115 cells [4]) | Ki67-positive cells (N1E-115 cells [5]) | peak extent of CA (MCF10A cells; interphase MCF10A cells, 10 μM) | peak extent of CA versus controls (MCF10A cells; interphase and mitotic MCF10A cells, 25 μM) | inhibition of neurite extension (N1E-115 cells [6])
1 | reduced-9-bromonoscapine [RBN] | smaller peak subG1 in MCF10A cells as compared to 231 cells | much greater increases in toxicity to 231 and PC3 cells | did increase peak SubG1 | 36.4 | 44.0 | significantly increased the peak extent of CA | induced CA in all three cell lines | increased Cyclin E and PLK4 expression | most robust effect | complete internalization of vinculin and complete loss of focal adhesion points | high proportion of Ki67-positive cells |  |  | 
2 | CN(C)CC(=O)Nc1ccc2[nH]c(=O)c3ccccc3c2c1 [PJ, PJ-34] |  |  | did not cause a significant increase | 6.9 | 9.1 |  |  |  | interphase Golgi complex fragmented | less severe | high proportion of Ki67-positive cells | 8 % of cells | increased the peak extent of CA in interphase and mitotic cells | moderate inhibition
